This is an account of results in patent US8354455B2, “Prodrugs containing novel bio-cleavable linkers” (Piramal Enterprises Limited and Apparao Satyam, priority 2004, dated 2013).

In brackets after ≈: the same amount, converted by molar mass. Where two headings read alike, the source gives them in different places.

A short description of data set [1]: In vitro plasma stability. Format: in vitro ADME. The following applies: rat plasma, 37° C., 30 minutes incubation, HPLC.
Text: The compounds were extracted back into acetonitrile with rigorous vortex.
Data set [2] has as its system carrageenan-induced rat paw edema. The data set is described as follows: Carrageenan-induced rat paw edema. Format: in vivo. The following applies: 75 mg/kg equivalent dose of aspirin, p.o.; for Rat paw edema (% inhibition) 1 hour / Rat paw edema (% inhibition) 2 hour / Rat paw edema (% inhibition) 4 hour / Rat paw edema (% inhibition) 6 hour: Mean ± SEM, n = 6.
The conditions of data set [3]: rat, in vivo, po, 35 mg/kg; for salicylate release / absorption profile (in words): both, Sprague-Dawley.
In data set [4] the test system is rats. The following applies: rat, in vivo, po.
Data set [5] has as its system MES-induced seizures. The data set is described as follows: Maximal Electroshock Test (MES), Test 1, mice i.p. In kind it is in vivo.
In another data set the test system is convulsant metrazol. The data set is described as follows: Subcutaneous Metrazol Seizure Threshold Test (scMET), Test 1, mice i.p. In kind it is in vivo. Conditions: mice, i.p.
For data set [6], the system named is MES-induced seizures. The data set is described as follows: animal or person. In kind it is in vivo, rats. Conditions: Test 2, rats p.o., 50 mg/kg.
Data set [7] deals with rats. Conditions: rat, in vivo, po, 50 mg/kg.
Text: Acute Toxicity—Minimal Motor Impairment (MMI): To assess a compound's undesirable side effects (toxicity), animals were monitored for overt signs of impaired neurological or muscular function.
Groups of at least 8 rats received various doses of the candidate compound until at least two points were established between the limits of 100 percent protection or toxicity and zero percent protection or minimal toxicity. The 95 percent confidence limits, slopes of the regression lines and standard errors of the slopes were calculated for each quantitative determination. Rats received test compounds orally.
This secondary evaluation determines the time to peak effect (TPE), neurotoxicity, median effective dose (ED50) and biological response.
Data set [8] is described as follows: Water solubility (HPLC of supernatant). Format: physicochemical. How it is done:
Water solubility: Paclitaxel and its prodrug I-S22-PD2 (2 mg each) were suspended in 1 mL water or PBS-buffer (pH 7.4). The suspensions were sonicated for 15 min and centrifuged (13,000 g) for 10 min. The supernatant was analyzed using HPLC.
HPLC: Waters RP18 column ([…], X-Terra); DAD-HP Agilent (Model 1100); eluent: CH3CN:H2O (gradient 0-100% acetonitrile in 0-15 min). The UV-detector was set at […]. The concentrations were determined by measuring the relative area of paclitaxel or I-S22-PD2. […] (i.e., ˜0.2 mg/mL).

For `CC(=O)Oc1ccccc1C(=O)O` [Aspirin, reference compound], the “release of parent drug / conversion to salicylate (in words)” value (“release of parent drug / conversion” below) in [1] is recorded as “completely metabolized to salicylate”. Moreover, in data set [2], the “anti-inflammatory activity (in words)” value is “anti-inflammatory activity from 1 hr through 6 hr with peak maximal activity at 4 hr”, the “Rat paw edema (% inhibition) 1 hour” value is recorded as 31.0 ± 7.2%, the “Rat paw edema (% inhibition) 2 hour” value is 52.5 ± 3.4% and the “Rat paw edema (% inhibition) 4 hour” value was found to be 60.7 ± 6.9%. Further, the “Rat paw edema (% inhibition) 6 hour” value in [2] is reported as 42.8 ± 6.9%. Moreover, in [3], the “salicylate release / absorption profile (in words)” value is “highest during 0.5-6.0 hrs”. The “ulcers (in words)” value in the data set on rats [4] (100 mg/kg) was “severe haemorrhagic lesions”.
Turning to `CCOC(=O)CC1(CNC(=O)OCCSSCC(=O)OC)CCCCC1` [I-A1-PD5], the “activity in MES model (in words)” value in the data set with MES-induced seizures [5] (Test 1, mice i.p.) was “active in MES”. Also, the “MES (number of animal protected/number of animal tested)” value is “(1/1)” in the data set on MES-induced seizures [5] (mice, i.p., 0.5 h, 300 mg/kg (+)); 0/4 in the data set with MES-induced seizures [6] (0.50 h); 0/4 in the data set with MES-induced seizures [6] (1.00 h); 1/4 in the data set on MES-induced seizures [6] (2.00 h); 1/4 in the data set on MES-induced seizures [6] (4.00 h). In addition, the “MES 0.5 h” value with MES-induced seizures [5] (mice, i.p., 0.5 h, symbol = dose with activity) is “+ (+ = activity or toxicity at 300 mg/kg)”. Further, in the data set on MES-induced seizures [5] (mice, i.p., 4.0 h, symbol = dose with activity), the “MES 4.0 h” value was “— (— = no activity or no toxicity at 300 mg/kg)”. In the data set with convulsant metrazol (0.5 h, 300 mg/kg (+)), the “ScMET (number of animal protected/number of animal tested)” value is “(3/5)”. Further, in the data set on convulsant metrazol (0.5 h, symbol = dose with activity), the “ScMET 0.5 h” value is “+ (+ = activity or toxicity at 300 mg/kg)”. Moreover, the “ScMET 4.0 h” value in the data set on convulsant metrazol (4.0 h, symbol = dose with activity) was “— (— = no activity or no toxicity at 300 mg/kg)”. Moreover, in the data set on mice (Test 1, mice i.p.), the “toxicity (in words)” value was “no or mild toxicity”. The “Rotorod Toxicity 0.5 h” value with mice (mice, i.p., 0.5 h, symbol = dose with toxicity) is given as “+ (+ = activity or toxicity at 300 mg/kg)”. The “Rotorod Toxicity 4.0 h” value with mice (mice, i.p., 4.0 h, symbol = dose with toxicity) is given as “— (— = no activity or no toxicity at 300 mg/kg)”. Further, in the data set with rats [7], the “Toxicity (number of animals exhibiting toxicity/number of animals tested)” value is listed as 0/4.
For the compound `CC(=O)Oc1ccccc1C(=O)OCCSSCCO[N+](=O)[O-]` [I-C1-NOPD4], the “release of parent drug / conversion” value in data set [1] was “converting to the expected metabolite (salicylate)”. Further, in [2], the “anti-inflammatory activity (in words)” value is “significant activity during the first two hours”, the “Rat paw edema (% inhibition) 1 hour” value is recorded as 42.4 ± 13.3%, the “Rat paw edema (% inhibition) 2 hour” value was determined as 44.9 ± 12.9% and the “Rat paw edema (% inhibition) 4 hour” value is recorded as 24.3 ± 7.7%. In data set [2], the “Rat paw edema (% inhibition) 6 hour” value was found to be 8.6 ± 5.1%. Also, in [3], the “salicylate release / absorption profile (in words)” value was “released in a sustained and controlled manner starting from 1 hour through 12 hours”. The “ulcers (in words)” value with rats [4] (100 mg/kg) is listed as “none of the animals treated with the test compounds showed any signs of development of ulcers”.
In the case of `CC(=O)Oc1ccccc1C(=O)NC(=O)OCCSSCCO[N+](=O)[O-]` [I-C1-NOPD5A], the “release of parent drug / conversion” value in data set [1] was “converting to the expected metabolite (salicylate)”. Further, in data set [2], the “anti-inflammatory activity (in words)” value was “negligible anti-inflammatory activity”. In addition, the “ulcers (in words)” value in the data set on rats [4] (200 mg/kg) is given as “none of the animals treated with the test compounds showed any signs of development of ulcers”.
`CC(=O)Oc1ccccc1C(=O)NCCSSCCO[N+](=O)[O-]` [I-C1-NOPD6]: in [3], the “prodrug or salicylate found in plasma (in words)” value is given as “neither the prodrug nor the salicylate was found in the plasma”. The “ulcers (in words)” value in the data set on rats [4] (100 mg/kg) is given as “none of the animals treated with the test compounds showed any signs of development of ulcers”.
`CC(=O)O[C@H]1C(=O)[C@@]2(C)C([C@H](OC(=O)c3ccccc3)[C@]3(O)C[C@H](OC(=O)[C@H](OC(=O)OCCSSCCOC(=O)CCC(=O)O)[C@@H](NC(=O)c4ccccc4)c4ccccc4)C(C)=C1C3(C)C)[C@]1(OC(C)=O)CO[C@@H]1C[C@@H]2O` (some centres unmarked) [I-S22-PD2] returned a solubility at 15 min in data set [8] (aqueous buffer, thermodynamic from solid, 2 mg suspended in 1 mL water or PBS-buffer (pH 7.4), sonicated, centrifuged) of around 200 µg/mL (≈ 176 µM). Also, the “solubility relative to paclitaxel” value in data set [8] (water or PBS-buffer (pH 7.4)) came to 20 times.
